Measurements: patent US12114689B2 (NICOVENTURES TRADING LIMITED, priority 2018, dated 2024)

Key:
[1] = cited from earlier work
[2] = binding energy with the cyclodextrin host; details: such as (2-Hydroxypropyl)-β-cyclodextrin
Text: The flavor components should be added last; this is due to the generally higher binding energy (vs. nicotine) with the cyclodextrin host. […] For menthol example, the approximate binding energies are −4.13 Kcal·mol^−1 (nicotine) and −5.06 Kcal·mol^−1 (menthol). […] Microfiltration may then be performed, in this case, to remove any excess menthol which has not formed a complex with cyclodextrin.

Compound | solubility in water compared to base cyclodextrins such as β-cyclodextrin [1] | approximate binding energy with the cyclodextrin host [2] [kcal/mol]
2-hydroxy-propyl-β-cyclodextrin [2-hydroxy-propyl-O-cyclodextrin] | increased solubility in water | 
CN1CCC[C@H]1c1cccnc1 (stereo in doubt) [Nicotine, 3-(1-methylpyrrolidin-2-yl) pyridine] |  | ~-4.13
CC1CCC(C(C)C)C(O)C1 (stereo not drawn) [menthol] |  | ~-5.06
